The text below walks through data of publication PMC11939361, “diAcCA, a Pro-Drug for Carnosic Acid That Activates the Nrf2 Transcriptional Pathway, Shows Efficacy in the 5xFAD Transgenic Mouse Model of Alzheimer’s Disease” (Antioxidants, 2025).

For data set [1], the system named is 5xFAD mice. Put plainly: Contextual and cued conditioned fear test. It counts as in vivo, mouse. As to conditions: diAcCA PO for 3 months. The protocol: (§1) diAcCA or control vehicle was administered three times per week for 3 months to 5xFAD Tg or WT littermate control mice starting at approximately 5 months of age by oral gavage (designated here as “per os” or PO). Three different doses were used (10 mg/kg, 20 mg/kg, or 50 mg/kg). diAcCA was dissolved in olive oil vehicle, a non-polar organic solvent. For vehicle control, we administered olive oil alone. A total of 45 animals were used in this study, with 7–8 animals in each group.
Contextual and cued learning processes in mice rely on the hippocampus and amygdala, respectively. Fear conditioning is used to evaluate both of these processes. During the conditioning period, mice are trained to associate a context (distinctive environment) and a conditioned stimulus (CS, neutral stimulus consisting of a tone and light) with an unpleasant foot shock to which the mice learn to respond by freezing their movement. Here, we evaluated hippocampal function using the contextual and cued conditioned fear test. […]
On day 1, the mice were acclimatized to the chambers in a 5 min session with no shock. […] On day 3, a 5 min trial took place in the original training chamber (context test) and contextual conditioning was evaluated by observing freezing behavior. […]

The nature of data set [2]: Shelf life / stability of the compound over time. The format is physicochemical. The note with it: storage (CA: even if kept in the dark and cold).
In data set [3] the test system is 5xFAD mice. Put plainly: Morris water maze probe test. The note with it: for Morris water maze probe test, time in the platform quadrant zone: compared to WT control mice; for Morris water maze probe test, percentage of time in the target quadrant / Morris water maze probe test, time to first enter the platform zone: compared to WT controls. The format is in vivo, mouse. The protocol: as §1
The Morris water maze test is used to evaluate spatial learning and memory skills in rodents. In the experimental setup, mice are placed in a circular tank containing opaque water maintained at a consistent temperature of 21 ± 1 °C. The mice undergo 2 trials each day for a period of 4 days during which they are trained to find a hidden platform placed somewhere within the tank. The platform acts as an escape for the mice from swimming. The starting point of the mice in the tank is randomized; however, the location of the platform remains unchanged for a given mouse. After entering the water, the mice are given a maximum of 90 s to navigate to the platform and climb it. If a mouse is unable to find the platform in this duration, the experimenter offers gentle guidance to help it in reaching the platform. On day 5, after the training phase is over, a “probe trial” is conducted in which the platform is removed from the water maze. The mice are allowed to swim for a period of 60 s to observe if they learned to use spatial cues to navigate to safety (i.e., swim to the area in which the platform had been located and then spend more time in this quadrant of the pool than the other quadrants). After each trial, the mice are given a 10 min rest period in which they are transferred to a new cage with a warm towel. Data are analyzed using Noldus EthoVision software (version XT 17, Leesburg, VA, USA) with parameters measured for “latency to escape” for the acquisition trials and “quadrant time” as well as “distance and velocity of swimming” in the probe test.
To delineate the effect of diAcCA on spatial memory, we performed the Morris water maze probe test, a widely used assessment for evaluating hippocampal-dependent memory. After diAcCA or vehicle treatment of WT and 5xFAD mice for 3 months starting at 5 months of age, the animals were initially trained for […] to ensure learning of the spatial memory task, i.e., swimming to the location of a hidden platform in the opaque water maze that the mice could stand on. Subsequently, their memory for the task was measured using the “probe test”, monitoring how well each mouse recalled the location of the platform once it had been removed from the swimming tank. This was assessed by the amount of time spent in the proper quadrant of the tank that previously housed the platform (the “target” quadrant) vs. other quadrants.

The conditions of data set [4]: mouse, in vivo.
Description: We tested both CA and diAcCA compounds by oral gavage/PO at 10 mg/kg. Analysis was performed by LC-MS in the Scripps Florida Drug Development Core (Jupiter, FL, USA). The compounds were formulated in olive oil. CA went into the oil with minimal stirring, but diAcCA required longer stirring. Blood was collected in hematocrit tubes and centrifuged. […] Drug is therefore likely absorbed via enterocyte passage and through chylomicron absorbance, complicating the early time points of the PK curves.
Therefore, we decided to pre-weigh the CA into a vial and, in the vivarium, rapidly dissolve the compound in DMSO and then add Tween80/saline. The compound was dosed within five minutes of being dissolved, and the final concentrations were 5% DMSO and 95% of a 5% Tween80 solution in saline. […] Oral clearance calculations assume 100% bioavailability.
We also determined the stability and bioavailability of diAcCA compared to CA. For this purpose, individual mice were administered CA or diAcCA IV or via oral gavage/PO. For CA, the doses were 3 mg/kg for the IV route and 10 mg/kg for oral gavage/PO, and for diAcCA 10 mg/kg by oral gavage/PO.
In data set [5] the test system is DAM-related genes in 5xFAD mouse brain. Put plainly: nCounter NanoString neuropathology gene expression panel. It counts as in vivo. The protocol: as §1
The hippocampus/cortex were isolated from the brain and RNA isolation was performed immediately using the Quick-RNA Miniprep kit (76211-580, VWR, Radnor, PA, USA). RNA was then analyzed by the Salk Institute Single-Cell & Spatial Omics Core for the nCounter Neuropathology panel (NanoString, Bruker Spatial Biology, Inc., Seattle, WA, USA). The list of genes included in the NanoString analysis is provided as Supplementary Information (Table S3). The analysis was performed using the following packages on R studio software version 4.2.3: readr 2.1.5, dplyr 1.1.4, clusterProfiler 4.6.2, org.mm.eg.db 3.16.0, ggplot2 3.5.1, and stringr 1.5.1.
To elucidate the molecular underpinnings of the effect of diAcCA on neuroinflammation, we next analyzed disease-associated microglia (DAM) signatures in WT and 5xFAD mouse brains using nCounter® biomarker analysis (NanoString, Bruker Spatial Biology, Inc., […]). RNA was isolated from the hippocampus/cortex of WT and 5xFAD mice that had received three-month vehicle or diAcCA treatment, and a NanoString neuropathology gene expression panel was performed (Figure 4).

One may read the Tmax as the time from dosing to the highest level. For the compound `CC(=O)Oc1c(C(C)C)cc2c(c1OC(C)=O)[C@@]1(C(=O)O)CCCC(C)(C)[C@@H]1CC2` [diAcCA], the “context test of conditioned fear, freezing behavior” value in the data set with 5xFAD mice [1] is on record as “showed freezing behavior similar to WT mice”. For the same compound, in data set [2], the “shelf life / stability over time” value is given as “stable in our hands for over two years”. The “shelf life / stability over time” value in data set [2] (listed as diAcCa) is “stable shelf life (of over two years)”. In addition, in the data set on 5xFAD mice [3] (10 mg/kg and 20 mg/kg), the “Morris water maze probe test, time in the platform quadrant zone” value was “spent significantly less time in the platform quadrant zone compared to WT control mice”. In addition, in the data set on 5xFAD mice [3] (10 mg/kg), the “Morris water maze probe test, percentage of time in the target quadrant” value is recorded as “spent significantly less time in the target quadrant” and the “Morris water maze probe test, time to first enter the platform zone” value is reported as “took significantly more time to first enter the platform zone compared to WT controls”. Further, in the data set with 5xFAD mice [3] (20 mg/kg and 50 mg/kg), the “Morris water maze probe test, percentage of time in the target quadrant” value was “spent a similar percentage of time in the target and other quadrants as the WT controls”; the “Morris water maze probe test, time to first enter the platform zone” value is “took a similar amount of time compared to WT controls”. The “Morris water maze probe test, time in the platform quadrant zone” value in the data set on 5xFAD mice [3] (50 mg/kg) was “spent similar amount of time in the platform quadrant as WT control mice”. For the same compound, the “Morris water maze probe test, performance (time in target quadrant, time to reach platform zone)” value with 5xFAD mice [3] (≥20 mg/kg, or, for total time spent in the target quadrant, 50 mg/kg) is given as “performed significantly better”. Moreover, the “half-life (t1/2)” value in data set [4] is “over 12 h”. For the same compound, the “Cmax greater than after CA itself” value in data set [4] (po) is given as around 30%. In addition, in data set [4] (po, 10 mg/kg), the “Cmax of CA in plasma” value was 5.75, the Tmax was found to be 1.67 h, the average half-life was 12.27 h and the “mean Cmax of CA” value is 5.75 µM. Also, in data set [4] (po, 10 mg/kg), the t1/2 is reported as 12.27 h and the “time to peak plasma levels of CA after administration of diAcCA” value was ~ 15 min. Further, the “expression of DAM genes C3 and Igf1” value in data set [5] (5xFAD brain, 20 or 50 mg/kg vs vehicle, n = 3) is reported as “significantly downregulated”. The “DAM signature (heatmap of DAM-related genes)” value in data set [5] (5xFAD hippocampus/cortex RNA, three-month treatment, n = 3) was “dose-dependent decrease in DAM signature”. Also, the “GO biological pathway analysis of upregulated and downregulated genes” value in data set [5] (diAcCA-treated 5xFAD brain vs vehicle-treated) was “upregulation of genes enriched in pathways associated with neuroprotection”.
